The values that follow come from US6815447B2, “N-type calcium channel antagonists for the treatment of pain” (Astrazeneca AB, priority 2000, dated 2004).

SMILES strings stand for the structures.

In general, IC50 refers to the concentration that inhibits the measured activity by half.

The assay concerns the target N-type calcium channel (Homo sapiens, UniProt Q00975). The assay is described as follows: N-channel FLIPR assay (inhibition of K+-evoked calcium flux in neuronally differentiated IMR32 cells). Type of assay: cell-based. The settings on record: 80 mM K+ stimulus, read-out: IC50 for the N-type calcium channel, as measured by the FLIPR assay. On the technique in general: A change in cytosolic calcium serves as a functional read-out for many receptors and channels.

N-type calcium channel, sequence (Q00975 whole entry): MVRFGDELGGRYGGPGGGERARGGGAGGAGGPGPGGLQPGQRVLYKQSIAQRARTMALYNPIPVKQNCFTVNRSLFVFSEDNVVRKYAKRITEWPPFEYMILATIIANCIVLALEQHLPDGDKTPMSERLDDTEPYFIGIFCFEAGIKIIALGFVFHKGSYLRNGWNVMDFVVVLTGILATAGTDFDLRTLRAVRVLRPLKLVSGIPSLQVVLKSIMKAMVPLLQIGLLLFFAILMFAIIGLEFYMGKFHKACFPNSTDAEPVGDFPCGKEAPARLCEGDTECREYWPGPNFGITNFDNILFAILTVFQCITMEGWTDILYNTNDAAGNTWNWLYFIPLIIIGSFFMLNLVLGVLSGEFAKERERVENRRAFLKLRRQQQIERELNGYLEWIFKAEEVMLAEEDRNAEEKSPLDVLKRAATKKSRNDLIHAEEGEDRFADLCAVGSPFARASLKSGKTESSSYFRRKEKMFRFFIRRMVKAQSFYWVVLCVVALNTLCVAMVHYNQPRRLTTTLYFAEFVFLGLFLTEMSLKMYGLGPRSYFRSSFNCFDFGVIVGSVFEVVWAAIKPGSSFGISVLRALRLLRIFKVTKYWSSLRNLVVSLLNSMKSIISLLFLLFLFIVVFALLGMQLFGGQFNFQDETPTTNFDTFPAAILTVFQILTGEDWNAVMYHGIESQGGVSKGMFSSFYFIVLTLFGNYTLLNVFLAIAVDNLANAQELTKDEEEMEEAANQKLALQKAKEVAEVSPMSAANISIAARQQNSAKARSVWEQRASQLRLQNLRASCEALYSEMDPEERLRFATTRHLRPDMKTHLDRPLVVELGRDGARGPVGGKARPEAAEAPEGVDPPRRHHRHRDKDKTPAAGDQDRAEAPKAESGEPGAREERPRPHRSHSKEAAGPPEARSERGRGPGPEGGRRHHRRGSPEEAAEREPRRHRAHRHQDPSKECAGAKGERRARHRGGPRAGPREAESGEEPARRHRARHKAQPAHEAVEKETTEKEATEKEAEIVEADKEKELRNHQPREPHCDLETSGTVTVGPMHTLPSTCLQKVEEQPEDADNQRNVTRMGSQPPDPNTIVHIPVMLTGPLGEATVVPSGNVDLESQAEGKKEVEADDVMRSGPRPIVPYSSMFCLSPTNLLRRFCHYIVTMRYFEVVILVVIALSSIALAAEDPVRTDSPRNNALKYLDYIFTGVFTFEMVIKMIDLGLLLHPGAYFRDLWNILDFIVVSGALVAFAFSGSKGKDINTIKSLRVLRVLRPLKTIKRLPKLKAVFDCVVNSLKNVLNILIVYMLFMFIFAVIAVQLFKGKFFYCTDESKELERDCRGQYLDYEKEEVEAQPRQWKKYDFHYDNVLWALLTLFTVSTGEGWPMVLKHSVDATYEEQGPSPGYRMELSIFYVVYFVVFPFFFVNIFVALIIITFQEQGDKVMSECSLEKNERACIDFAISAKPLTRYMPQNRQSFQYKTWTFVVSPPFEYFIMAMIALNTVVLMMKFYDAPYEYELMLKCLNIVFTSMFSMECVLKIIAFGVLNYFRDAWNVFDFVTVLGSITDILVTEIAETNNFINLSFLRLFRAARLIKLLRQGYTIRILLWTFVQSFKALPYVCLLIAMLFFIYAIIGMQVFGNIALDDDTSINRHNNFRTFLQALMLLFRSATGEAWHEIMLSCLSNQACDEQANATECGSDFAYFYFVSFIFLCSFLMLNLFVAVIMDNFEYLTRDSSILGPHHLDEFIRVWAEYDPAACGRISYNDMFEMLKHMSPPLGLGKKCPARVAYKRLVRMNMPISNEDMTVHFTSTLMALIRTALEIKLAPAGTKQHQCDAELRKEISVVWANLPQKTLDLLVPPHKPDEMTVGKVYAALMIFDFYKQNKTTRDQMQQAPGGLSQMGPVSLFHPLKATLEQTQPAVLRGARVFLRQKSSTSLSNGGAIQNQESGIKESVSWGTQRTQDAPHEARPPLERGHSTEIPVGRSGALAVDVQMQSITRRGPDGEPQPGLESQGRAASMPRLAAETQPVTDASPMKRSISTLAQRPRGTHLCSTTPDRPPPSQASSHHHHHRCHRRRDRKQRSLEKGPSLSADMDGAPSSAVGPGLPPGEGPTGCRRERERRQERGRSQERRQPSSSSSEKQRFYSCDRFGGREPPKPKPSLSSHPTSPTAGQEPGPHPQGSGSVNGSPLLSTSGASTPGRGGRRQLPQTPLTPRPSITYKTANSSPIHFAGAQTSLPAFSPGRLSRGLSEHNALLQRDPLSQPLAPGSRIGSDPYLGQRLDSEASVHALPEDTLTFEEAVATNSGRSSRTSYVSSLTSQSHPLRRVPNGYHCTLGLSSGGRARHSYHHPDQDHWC
N-type calcium channel, sequence (P54284 whole entry partner): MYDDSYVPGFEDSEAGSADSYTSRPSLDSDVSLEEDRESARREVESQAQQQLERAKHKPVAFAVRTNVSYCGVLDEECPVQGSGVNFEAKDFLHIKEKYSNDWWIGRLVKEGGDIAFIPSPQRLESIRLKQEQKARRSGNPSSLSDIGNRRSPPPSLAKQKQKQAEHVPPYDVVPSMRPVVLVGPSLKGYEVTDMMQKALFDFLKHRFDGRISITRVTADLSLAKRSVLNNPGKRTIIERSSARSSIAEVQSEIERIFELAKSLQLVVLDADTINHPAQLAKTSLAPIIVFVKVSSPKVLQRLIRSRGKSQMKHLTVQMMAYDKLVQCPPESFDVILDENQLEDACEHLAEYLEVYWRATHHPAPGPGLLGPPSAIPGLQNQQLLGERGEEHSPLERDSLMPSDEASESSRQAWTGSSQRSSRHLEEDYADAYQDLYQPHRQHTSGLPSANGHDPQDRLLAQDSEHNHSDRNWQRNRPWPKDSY
N-type calcium channel, sequence (P54289 25-956 partner limits assumed): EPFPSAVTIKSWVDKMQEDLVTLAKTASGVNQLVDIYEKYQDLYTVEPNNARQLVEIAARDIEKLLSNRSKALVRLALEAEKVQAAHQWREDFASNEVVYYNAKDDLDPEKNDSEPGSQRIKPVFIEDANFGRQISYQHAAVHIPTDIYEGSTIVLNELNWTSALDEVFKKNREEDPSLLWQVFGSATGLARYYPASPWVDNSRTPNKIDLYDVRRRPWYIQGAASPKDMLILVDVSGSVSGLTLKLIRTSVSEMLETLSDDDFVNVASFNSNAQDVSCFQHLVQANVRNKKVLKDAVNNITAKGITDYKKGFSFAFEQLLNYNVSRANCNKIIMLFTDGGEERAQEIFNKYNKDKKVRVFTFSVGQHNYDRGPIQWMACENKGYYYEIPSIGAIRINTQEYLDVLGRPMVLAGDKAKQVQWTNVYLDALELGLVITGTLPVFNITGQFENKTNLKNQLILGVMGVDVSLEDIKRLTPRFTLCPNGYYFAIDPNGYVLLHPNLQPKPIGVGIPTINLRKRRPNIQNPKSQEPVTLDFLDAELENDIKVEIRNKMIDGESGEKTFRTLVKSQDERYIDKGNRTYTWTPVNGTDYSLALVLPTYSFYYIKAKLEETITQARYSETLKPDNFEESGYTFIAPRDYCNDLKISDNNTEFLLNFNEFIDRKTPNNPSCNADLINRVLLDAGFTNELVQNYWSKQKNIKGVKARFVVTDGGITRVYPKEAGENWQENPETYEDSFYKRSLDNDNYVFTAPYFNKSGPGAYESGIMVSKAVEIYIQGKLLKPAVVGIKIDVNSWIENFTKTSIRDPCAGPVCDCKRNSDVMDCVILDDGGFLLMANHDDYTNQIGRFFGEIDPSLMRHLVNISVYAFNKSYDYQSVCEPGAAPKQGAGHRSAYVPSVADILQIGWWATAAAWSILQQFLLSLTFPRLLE
N-type calcium channel, sequence (P54289 957-1103 partner limits assumed): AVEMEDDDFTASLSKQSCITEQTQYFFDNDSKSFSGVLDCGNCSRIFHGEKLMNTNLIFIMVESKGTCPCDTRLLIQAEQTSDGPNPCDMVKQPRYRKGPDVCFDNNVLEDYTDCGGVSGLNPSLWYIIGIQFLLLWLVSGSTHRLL

For the molecule `Nc1nc(Nc2ccc3nc(-c4ccccc4)cc(N)c3c2)cc(C(F)(F)F)n1` [Example 4, N6-(2-Amino-6-trifluoromethyl-pyrimidin-4-yl)-2-phenyl-quinoline-4,6-diamine], the half-inhibitory concentration (IC50) was determined as 3.57 µM.
Turning to `Cc1cc(N)c2cc(Nc3cc(-c4ccccc4F)nc(N)n3)ccc2n1` [Example 66, N6-[2-Amino-6-(2-fluoro-phenyl)-pyrimidin-4-yl]-2-methyl-quinoline-4,6-diamine], the IC50 is 2.37 µM.
The figure for `COc1ccccc1-c1cc(Nc2ccc3nc(-c4ccccc4)cc(N)c3c2)nc(N)n1` [Example 75, N6-[2-Amino-6-(2-methoxy-phenyl)-pyrimidin-4-yl]-2-phenyl-quinoline-4,6-diamine] is 10.5 µM; for `Cc1cc(N)c2cc(Nc3cc(-c4cccc(F)c4)nc(N)n3)ccc2n1` [Example 74, N6-[2-Amino-6-(3-fluoro-phenyl)-pyrimidin-4-yl]-2-methyl-quinoline-4,6-diamine] it is 3.56 µM.
